Values joined by “and” are separate entries in the source; they are usually repeats but may differ in a detail not shown here. Equal values may be shown once. Read-outs that look alike come from different tables or passages of the source.
Legend:
[1] = test system: LTR4-FT (parallel DNA G4); experiment: FRET melting assay, LTR4-FT; format: binding, HIV-1; conditions: ligand 1 μM, DNA 0.2 μM
Method: Doubly labelled oligonucleotides with fluorescein and TAMRA were purchased lyophilized and RP-cartridge purified from Eurogentec (Kanaka Eurogentec, Seraing, Belgium). FRET melting experiments were run on Stratagene Mx3005P real-time PCR equipment in 96-well plates on the DNA sequences listed Table 1. Experiments were performed in 10 mM lithium cacodylate buffer (pH 7.2) and 10 mM KCl and 90 mM LiCl as previously described.[45,46] The DNA concentration was 0.2 μM. The stabilization (ΔT1/2) induced by compounds was calculated as the difference between the Tm of the nucleic acid alone and that measured with a ligand concentration of 1 μM. Data are presented as averages of three independent measurements, each conducted in duplicate (λexc = 492 nm, λem = 516 nm, T interval = 25–95 °C, ramp: 25 °C for 5 min, then 1 °C min^−1, measurements every 1 °C, 8× magnification of the fluorescence signal). The G4 selectivity of the ligands with respect to the duplex was evaluated by determining the Tm values in the presence of 0, 3 or 10 μM of the duplex competitor ds26.
In this assay, we performed thermal denaturation experiments by heating and recording the fluorescence of DNA oligonucleotides doubly labelled with fluorescein and TAMRA fluorophores (Fig. 3 and S7). Ligand binding to the G4 stabilises the structure, resulting in an increase in the half-dissociation temperature of the structure (ΔT1/2). As a first approximation, the higher the ΔT1/2 (ΔT1/2 higher), the higher the affinity of the ligand for the target.[45]
The fluorescently labeled oligonucleotides were dissolved at a concentration of 0.2 μM in 10 mM lithium cacodylate buffer (pH 7.2) with 10 mM KCl and 90 mM LiCl. […] E) Radar plot representation that summarizes the FRET-melting results (ΔT1/2 (°C)) for each ligand in the presence of HIVpro1-FT (green), HIVpro2-FT (grey), LTR4-FT (bleu), and Htel-FT (red). Data are the results of at least three independent experiments in which each data point was performed in duplicate.

[2] = target: G4T4G4 DNA G4 (antiparallel); experiment: Native ESI-MS, G4T4G4; format: binding; conditions: 10 μM DNA, 20 μM ligand, 100 mM ammonium acetate
Method: (§1) Oligonucleotides were purchased lyophilized and RP-cartridge purified from Eurogentec (Kanaka Eurogentec, Seraing, Belgium), then buffer exchanged with ammonium acetate (5 M; Sigma-Aldrich, Saint-Quentin-Fallavier, France) using Amicon Ultra (3 K cut-off; Merck Millipore, Cork, Ireland). The concentrations of the initial stock solutions of DNA/RNA (∼1 mM) were measured by UV absorbance at 260 nm. Sample solutions were prepared by diluting the appropriate volume of oligonucleotide stock solutions to reach 10 μM of DNA/RNA and 20 μM of ligand, in 100 mM ammonium acetate. The solutions were incubated for 16 h at 4 °C before analysis by mass spectrometry. […] These parameters ensured a good signal intensity without disrupting noncovalent complexes, which was verified using d[G4T4G4]2 as a control. The presented spectra of all DNA/RNA used in this work (Fig. 5, S9 and S10) result from 8 min accumulations. The abundance of each species, M, M + 1L, M + 2L and M + 3L complexes, where M is a monomer oligonucleotide and L is a ligand, was determined from their peak area signals (A), from the sum of the −4, −5 and −6 charge states for DNA and from the sum of the −5, −6 and −7 charge states for RNA, assuming that their response factors are equal. The molar concentrations were then calculated knowing the total amount of oligonucleotide [M]tot: [drawing 1] [drawing 2] [drawing 3] [drawing 4] The concentration of the free ligand, [L]free, was determined from its total concentration [L]tot:[L]free = [L]tot − [M + 1L] − 2[M + 2L] − 3[M + 3L]Apparent consecutive dissociation constants (Kd1, Kd2 and Kd3) were calculated by using the following equations: [drawing 5] [drawing 6] [drawing 7]
(§2) We further analysed the formation of the DBA/G4 complexes by native electrospray ionization mass spectrometry (ESI-MS). We initially attempted to analyze DBA binding to the primary G4 targets from HIV-1 (HIVpro1, HIVpro2, LTR4 and rLTR4 RNA). […] These sequences span the major G4 topological classes and provide a representative assessment of DBA binding across diverse G4 architectures. We also included two DNA duplex controls (DK100 and DK66) to evaluate binding selectivity. This ESI-MS approach enables direct determination of binding stoichiometry, quantification of each species in solution, and calculation of dissociation constants (Kd) from the relative abundances of free and bound forms.[88,97]
(§3) In the ESI-MS conditions, the rLTR4 G4 (10 μM) forms a dimeric structure. […] Among the six DNA and RNA tested here (Fig. 5B, S9 and S10) only rLTR4 presented 1 : 3 G4/DBA complexes. In all cases but one, the 1 : 1 stoichiometry represents the major species in solution while for rLTR4 it is the 1 : 2 (green). […] For TG4T tetramolecular G4 or G4T4G4 bimolecular G4 only 1 : 1 and 1 : 2 complexes were detected (Fig. S9A and S10A). […] The weakest binding was obtained for the G4T4G4 antiparallel G4 and Htel sequence with Kd1s ranging from 11 μM for to 500 μM (Table 2).

[3] = target: TG4T DNA G4 (parallel); experiment: Native ESI-MS, TG4T; format: binding; conditions: 10 μM DNA, 20 μM ligand, 100 mM ammonium acetate
Method: as §1, §2, §3

Compound	ΔT1/2 LTR4 ([1]; +10µM ds26)	ΔT1/2 LTR4 ([1]; No ds26)	Kd ([2]; read-out: Kd1 G4T4G4)	Kd ([2]; read-out: Kd2 G4T4G4)	Kd ([3]; read-out: Kd1 TG4T)	Kd ([3]; read-out: Kd2 TG4T)
COc1ccc2c(ccc3c2cc2c4ccc(OC)cc4ccc2[n+]3-c2ccc([N+](=O)[O-])cc2)c1 [DBA4]	10±0.7 °C	11±0.5 °C and 11 °C	46.2 µM	26.6 µM	5.42 µM	22.7 µM
c1ccc(-[n+]2c3ccc4ccccc4c3cc3c4ccccc4ccc32)cc1 [DBA5]	6.0±1.3 °C		129 µM	33.4 µM	21.6 µM	89.4 µM
COc1ccc2c(ccc3c2cc2c4ccc(OC)cc4ccc2[n+]3-c2ccccc2)c1 [DBA1]	10±0.5 °C	11±0.2 °C	47.1 µM	38.6 µM	14.7 µM	46 µM
COC(=O)c1ccc(-[n+]2c3ccc4cc(OC)ccc4c3cc3c4ccc(OC)cc4ccc32)cc1 [DBA2]	7.3±0.4 °C	9.4±0.3 °C	51.2 µM	33.6 µM	6.09 µM	25.9 µM
COc1ccc(-[n+]2c3ccc4cc(OC)ccc4c3cc3c4ccc(OC)cc4ccc32)cc1 [DBA3]	10.2±0.3 °C	10.6±0.7 °C	36.9 µM	37 µM	13.6 µM	52.2 µM

From publication PMC13334477 (RSC Medicinal Chemistry, 2026)
